Columns and labels:
[1] = Comparative plasma PK of Compound 1 versus Int 1-4 in male CD-1 mice (study b); assay type: in vivo
Protocol: Objectives: to compare the plasma pharmacokinetics and stability of Compound 1 with its non-phosphorylated SMDC analog (Int 1-4) and in plasma following a single intravenous infusion administration of Compound 1 at 11.6 mg/kg and 23.2 mg/kg with Int 1-4 (formulation F1 & F2) at 10.0 mg/kg in male CD-1 mice
PK measurements: compare PK parameters C0, CL, Vdss, Cmax, tmax, t1/2, AUC(0-t), AUC(0-inf), MRT(0-t), MRT(0-inf) for Compound 1 and Int 1-4

[2] = Comparative plasma PK of Int 1-4 versus gemcitabine in mouse (study a); assay type: in vivo; conditions: CD-1 mice; for AUC0-inf/AUC0-last / AUC0-last / AUC(0-inf) / Cmax / MRT0-inf / MRT0-last / T1/2 / Tmax: plasma
[3] = Int 1-4 plasma PK in the male cynomolgus monkey (study f); assay type: in vivo
Protocol: Objectives: to compare the plasma pharmacokinetics and stability of Int 1-4 in plasma following single intravenous infusion administration of Int 1-4 at 5 mg/kg and 10 mg/kg in the male cynomolgus monkey
PK measurements: compare PK parameters C0, CL, Vdss, Cmax, tmax, t, AUC(0-t), AUC(0-inf), MRT(0-t), MRT(0-inf) for Int 1-4

[4] = Int 1-4 and gemcitabine comparative PK in male cynomolgus monkey (study g); assay type: in vivo; conditions: plasma, male cynomolgus monkey
Protocol: Objectives: to compare the plasma pharmacokinetics and stability of Int 1-4 versus gemcitabine in plasma following single intravenous infusion administration of Int 1-4 at 5 mg/kg and 10 mg/kg with equimolar gemcitabine at 2.65 mg/kg and 5.29 mg/kg in male cynomolgous monkeys
PK measurements: compare PK parameters C0, CL, Vdss, Cmax, tmax, t1/2, AUC(0-t), AUC(0-inf), MRT(0-t), MRT(0-inf) for Int 1-4 with gemcitabine

[5] = Comparative dog plasma PK of Int 1-4 versus gemcitabine (study k); assay type: in vivo; conditions: male beagle dog
Protocol: Objectives: to compare the plasma pharmacokinetics and stability of Int-4 in plasma following single intravenous infusion administration of Int 1-4 at 5 mg/kg and 10 mg/kg versus gemcitabine at 5 mg/kg in the male Beagle dog

[6] = Comparative PK of Int 1-4 versus gemcitabine in rat plasma (study i); assay type: in vivo, Sprague-Dawley rats; conditions: plasma, Sprague-Dawley rat
Text: PK measurements: compare PK parameters C0, CL, Vdss, Cmax, tmax, t1/2, AUC(0-t), AUC(0-inf), MRT(0-t), MRT(0-inf) for Int 1-4 and gemcitabine.

[7] = after iv Int 1-4 10.0 mg/kg, Formulation 1
[8] = after iv Int 1-4 10.0 mg/kg, Formulation 2
[9] = after iv gemcitabine 5.29 mg/kg
[10] = after iv Int 1-4 5 mg/kg (study f)
[11] = after iv Int 1-4 10 mg/kg (study f)
[12] = after iv Int 1-4 5 mg/kg (study g)
[13] = after iv Int 1-4 10 mg/kg (study g)
[14] = after iv gemcitabine 2.65 mg/kg
[15] = after iv Int 1-4 5 mg/kg (study k)
[16] = after iv Int 1-4 10 mg/kg (study k)
[17] = after iv gemcitabine 4.47 mg/kg

- AUC0-last ([1]; after iv Compound 1 11.6 mg/kg): 967 ng·h/mL
- AUC(0-inf) ([1]; after iv Compound 1 11.6 mg/kg): 786 ng·h/mL
- Cmax ([1]; after iv Compound 1 11.6 mg/kg): 220 ng/mL
- MRT0-inf ([1]; after iv Compound 1 11.6 mg/kg): 3.81 h
- MRT0-last ([1]; after iv Compound 1 11.6 mg/kg): 3.70 h
- Tmax ([1]; after iv Compound 1 11.6 mg/kg): 3.25 h
- t1/2 ([1]; after iv Compound 1 11.6 mg/kg): 2.38 h
- AUC0-last ([1]; after iv Compound 1 23.2 mg/kg): 1960 ng·h/mL
- AUC(0-inf) ([1]; after iv Compound 1 23.2 mg/kg): 1830 ng·h/mL
- Cmax ([1]; after iv Compound 1 23.2 mg/kg): 378 ng/mL
- MRT0-inf ([1]; after iv Compound 1 23.2 mg/kg): 4.48 h
- MRT0-last ([1]; after iv Compound 1 23.2 mg/kg): 3.65 h
- Tmax ([1]; after iv Compound 1 23.2 mg/kg): 4.00 h
- t1/2 ([1]; after iv Compound 1 23.2 mg/kg): 2.86 h
- AUC0-last [1, 7]: 983 ng·h/mL
- AUC(0-inf) [1, 7]: 1124 ng·h/mL
- Cmax [1, 7]: 213 ng/mL
- MRT0-inf [1, 7]: 4.67 h
- MRT0-last [1, 7]: 3.59 h
- Tmax [1, 7]: 4.00 h
- t1/2 [1, 7]: 3.06 h
- AUC0-last [1, 8]: 1106 ng·h/mL
- AUC(0-inf) [1, 8]: 1625 ng·h/mL
- Cmax [1, 8]: 236 ng/mL
- MRT0-inf [1, 8]: 5.89 h
- MRT0-last [1, 8]: 3.95 h
- Tmax [1, 8]: 4.00 h
- t1/2 [1, 8]: 4.15 h
- plasma levels of dFdU higher than gemcitabine, based on the ratios of AUC0-last [2, 9]: ~500%
- AUC0-inf/AUC0-last ([2]; after iv Int 1-4 9.4 mg/kg): 120%
- AUC0-last ([2]; after iv Int 1-4 9.4 mg/kg): 1039 ng·h/mL
- AUC(0-inf) ([2]; after iv Int 1-4 9.4 mg/kg): 1440 ng·h/mL
- Cmax ([2]; after iv Int 1-4 9.4 mg/kg): 253 ng/mL
- MRT0-inf ([2]; after iv Int 1-4 9.4 mg/kg): 4.65 h
- MRT0-last ([2]; after iv Int 1-4 9.4 mg/kg): 2.73 h
- T1/2 ([2]; after iv Int 1-4 9.4 mg/kg): 3.08 h
- Tmax ([2]; after iv Int 1-4 9.4 mg/kg): 1.00 h
- AUC0-inf/AUC0-last [2, 9]: 111%
- AUC0-last [2, 9]: 6827 ng·h/mL
- AUC(0-inf) [2, 9]: 8187 ng·h/mL
- Cmax [2, 9]: 1600 ng/mL
- MRT0-inf [2, 9]: 3.49 h
- MRT0-last [2, 9]: 2.56 h
- T1/2 [2, 9]: 2.23 h
- Tmax [2, 9]: 0.667 h
- C0 [3, 10]: 296 ng/mL
- MRT0-last [3, 10]: 30.60 h
- t1/2 [3, 10]: 0.67 h
- C0 [3, 11]: 747 ng/mL
- MRT0-last [3, 11]: 63.00 h
- t1/2 [3, 11]: 0.75 h
- AUC0-last [4, 12]: 4117 ng·h/mL
- AUC(0-inf) [4, 12]: 5555 ng·h/mL
- Cmax [4, 12]: 302 ng/mL
- MRT0-inf [4, 12]: 24.01 h
- MRT0-last [4, 12]: 10.31 h
- Tmax [4, 12]: 1.69 h
- t1/2 [4, 12]: 16.86 h
- AUC0-last [4, 13]: 5120 ng·h/mL
- AUC(0-inf) [4, 13]: 7903 ng·h/mL
- Cmax [4, 13]: 595 ng/mL
- MRT0-inf [4, 13]: 18.02 h
- MRT0-last [4, 13]: 8.30 h
- Tmax [4, 13]: 0.67 h
- t1/2 [4, 13]: 12.87 h
- AUC0-last [4, 14]: 7703 ng·h/mL
- AUC(0-inf) [4, 14]: 8837 ng·h/mL
- Cmax [4, 14]: 1973 ng/mL
- MRT0-inf [4, 14]: 9.35 h
- MRT0-last [4, 14]: 6.41 h
- Tmax [4, 14]: 0.09 h
- t1/2 [4, 14]: 5.89 h
- AUC0-last [5, 15]: 9863 ng·h/mL
- AUC(0-inf) [5, 15]: 13743 ng·h/mL
- Cmax [5, 15]: 715 ng/mL
- MRT0-inf [5, 15]: 18.22 h
- MRT0-last [5, 15]: 9.89 h
- Tmax [5, 15]: 4.00 h
- t1/2 [5, 15]: 11.79 h
- AUC0-last [5, 16]: 11700 ng·h/mL
- AUC(0-inf) [5, 16]: 13800 ng·h/mL
- Cmax [5, 16]: 936 ng/mL
- MRT0-inf [5, 16]: 12.99 h
- MRT0-last [5, 16]: 8.94 h
- Tmax [5, 16]: 2.00 h
- t1/2 [5, 16]: 8.40 h
- AUC0-last [5, 9]: 20133 ng·h/mL
- AUC(0-inf) [5, 9]: 23967 ng·h/mL
- Cmax [5, 9]: 1813 ng/mL
- MRT0-inf [5, 9]: 13.31 h
- MRT0-last [5, 9]: 8.71 h
- Tmax [5, 9]: 3.00 h
- AUC0-last ([6]; after iv Int 1-4 10.0 mg/kg): 288 ng·h/mL
- Cmax ([6]; after iv Int 1-4 10.0 mg/kg): 66.5 ng/mL
- MRT0-last ([6]; after iv Int 1-4 10.0 mg/kg): 5.55 h
- Tmax ([6]; after iv Int 1-4 10.0 mg/kg): 8.00 h
- AUC0-last [6, 17]: 1085 ng·h/mL
- Cmax [6, 17]: 222 ng/mL
- MRT0-last [6, 17]: 5.25 h
- Tmax [6, 17]: 8.00 h
SMILES: O=c1ccn(C2OC(CO)C(O)C2(F)F)c(=O)[nH]1 (stereo not shown) [dFdU]
